This test has as its target T1, human PDE4B1 (Homo sapiens, UniProt Q07343).
T1 construct: host or cells: Sf9 cells
Nature of the test: TR-FRET assay using the LANCE Ultra cAMP kit to determine the activity of hPDE4B1. The class given is biochemical. As to conditions: read-out: Inhibition in % (inhibition of PDE4B); for inhibition at 10 µM: test concentration 10 μM (marked in cell); for inhibition at 1 µM: test concentration 1 μM. An outline of the steps:
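Sf9-expressed recombinant human PDE4B1 (0.96 U) hydrolyses 500 nM cAMP for 30 minutes at room temperature in 50 mM Tris-HCl, 50 mM MgCl2, 5 mM DTT, pH 8.5. The reaction is stopped with IBMX, and residual cAMP is measured by TR-FRET (665/620 ratio). IC50 comes from ten concentrations.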
Background: Time-resolved FRET reads energy transfer from a long-lived donor to a nearby acceptor.

T1 sequence (Q07343 whole entry): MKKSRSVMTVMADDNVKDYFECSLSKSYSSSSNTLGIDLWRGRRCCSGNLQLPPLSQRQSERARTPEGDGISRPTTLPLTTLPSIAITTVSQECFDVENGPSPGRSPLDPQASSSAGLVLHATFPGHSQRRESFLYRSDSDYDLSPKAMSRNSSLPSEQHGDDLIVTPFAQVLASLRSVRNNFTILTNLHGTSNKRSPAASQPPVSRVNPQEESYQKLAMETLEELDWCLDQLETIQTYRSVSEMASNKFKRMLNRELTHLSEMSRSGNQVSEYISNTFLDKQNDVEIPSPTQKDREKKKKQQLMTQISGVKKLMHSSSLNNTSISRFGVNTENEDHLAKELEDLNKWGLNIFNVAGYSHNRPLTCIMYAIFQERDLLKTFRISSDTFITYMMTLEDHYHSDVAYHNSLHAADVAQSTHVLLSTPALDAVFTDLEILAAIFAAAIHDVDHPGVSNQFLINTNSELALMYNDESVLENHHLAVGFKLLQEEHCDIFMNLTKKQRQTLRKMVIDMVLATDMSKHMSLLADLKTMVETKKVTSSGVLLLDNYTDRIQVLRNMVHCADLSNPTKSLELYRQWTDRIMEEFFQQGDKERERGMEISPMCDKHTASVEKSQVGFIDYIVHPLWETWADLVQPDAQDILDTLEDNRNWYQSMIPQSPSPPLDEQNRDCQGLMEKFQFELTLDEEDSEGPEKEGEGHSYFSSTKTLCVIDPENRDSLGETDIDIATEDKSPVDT

What is called inhibition is the relative decrease from the control value, in per cent. On to `CNC(=O)CN(C)C(=O)c1ccc2c(S(C)(=O)=O)cn(-c3ncc(-c4cc(C)ccc4F)cn3)c2c1` [Example 305, 1-(5-(2-Fluoro-5-methylphenyl)pyrimidin-2-yl)-N-methyl-N-(2-(methylamino)-2-oxoethyl)-3-(methylsulfonyl)-1H-indole-6-carboxamide], for which the inhibition at 10 µM stood at 85%.
The same measure, in the same setting: as for `CS(=O)(=O)c1cn(-c2ncc(-c3ccccc3F)cn2)c2cc(C(=O)N3C[C@H]4C[C@@H]3CO4)ccc12` [Example 349, (1R,4R)-2-Oxa-5-azabicyclo[2.2.1]heptan-5-yl(1-(5-(2-fluorophenyl)pyrimidin-2-yl)-3-(methylsulfonyl)-1H-indol-6-yl)methanone], the figure is 92%; as for `CCOc1ccc(F)c(-c2cnc(-n3cc(C(C)O)c4ccc(C(=O)N5CCOCC5)cc43)nc2)c1` (stereo not shown) [Example 319, (1-(5-(5-Ethoxy-2-fluorophenyl)pyrimidin-2-yl)-3-(1-hydroxyethyl)-1H-indol-6-yl)(morpholino)methanone], 99%.
In the case of `CN(C)C(=O)c1ccc2c([S+](C)[O-])cn(-c3ncc(-c4ccccn4)cn3)c2c1` (stereo not shown) [Example 313, N,N-Dimethyl-3-(methylsulfinyl)-1-(5-(pyridin-2-yl)pyrimidin-2-yl)-1H-indole-6-carboxamide], the inhibition at 1 µM is 92%.
On the same count and under the same terms, as for `Cc1ccnc(-c2cnc(-n3cc([S+](C)[O-])c4ccc(C(=O)N(C)C)cc43)nc2)c1` (stereo not shown) [Example 270, N,N-Dimethyl-1-(5-(4-methylpyridin-2-yl)pyrimidin-2-yl)-3-(methylsulfinyl)-1H-indole-6-carboxamide], the figure is 102%.
Consider `Cc1ccc(F)c(-c2cnc(-n3cc([S+](C)[O-])c4ccc(C(=O)N(C)CCO)cc43)nc2)c1` (stereo not shown) [Example 315, 1-(5-(2-Fluoro-5-methylphenyl)pyrimidin-2-yl)-N-(2-hydroxyethyl)-N-methyl-3-(methylsulfinyl)-1H-indole-6-carboxamide], for which the inhibition at 10 µM came out at 97%.
In the case of `C[S+]([O-])c1cn(-c2ncc(-c3ccccc3F)cn2)c2cc(C(=O)N3CC4CNCC4C3)ccc12` (stereo not shown) [Example 222, (1-(5-(2-Fluorophenyl)pyrimidin-2-yl)-3-(methylsulfinyl)-1H-indol-6-yl)(hexahydropyrrolo[3,4-c]pyrrol-2(1H)-yl)methanone], the inhibition at 1 µM was 73%.
Still for that read-out and setting: as for `CN(C)C(=O)c1ccc2c([S+](C)[O-])cn(-c3ncc(-c4cc(N)ccn4)cn3)c2c1` (stereo not shown) [Example 273, 1-(5-(4-Aminopyridin-2-yl)pyrimidin-2-yl)-N,N-dimethyl-3-(methylsulfinyl)-1H-indole-6-carboxamide], the figure is 91%; as for `CC(C)c1ccnc(-c2cnc(-n3cc([S+](C)[O-])c4ccc(C(=O)N5CCOCC5)cc43)nc2)c1` (stereo not shown) [Example 256, (1-(5-(4-Isopropylpyridin-2-yl)pyrimidin-2-yl)-3-(methylsulfinyl)-1H-indol-6-yl)(morpholino)methanone], 96%; as for `COc1ccnc(-c2cnc(-n3cc([S+](C)[O-])c4ccc(C(=O)N(C)CC(N)=O)cc43)nc2)c1` (stereo not shown) [Example 283, N-(2-Amino-2-oxoethyl)-1-(5-(4-methoxypyridin-2-yl)pyrimidin-2-yl)-N-methyl-3-(methylsulfinyl)-1H-indole-6-carboxamide], 92%.
Regarding `Cc1ccc(F)c(-c2cnc(-n3cc(C(C)O)c4ccc(C(=O)N5CCOCC5)cc43)nc2)c1` (stereo not shown) [Example 320], the inhibition at 10 µM stood at 109%.
On to `CN(C)C(=O)c1ccc2c([S+](C)[O-])cn(-c3ncc(-c4cc(N(C)C)ccn4)cn3)c2c1` (stereo not shown) [Example 272, 1-(5-(4-(Dimethylamino)pyridin-2-yl)pyrimidin-2-yl)-N,N-dimethyl-3-(methylsulfinyl)-1H-indole-6-carboxamide], for which the inhibition at 1 µM came to 93%.
The same measure, in the same setting: to `C[S+]([O-])c1cn(-c2ncc(-c3ccccc3F)cn2)c2cc(C(=O)N3CC=CCC3)ccc12` (stereo not shown) [Example 306, (5,6-Dihydropyridin-1(2H)-yl)(1-(5-(2-fluorophenyl)pyrimidin-2-yl)-3-(methylsulfinyl)-1H-indol-6-yl)methanone] belongs 80%.
Consider `Cc1ccc(F)c(-c2cnc(-n3cc(S(C)(=O)=O)c4ccc(C(=O)N(C)CC(N)=O)cc43)nc2)c1` [Example 328, N-(2-Amino-2-oxoethyl)-1-(5-(2-fluoro-5-methylphenyl)pyrimidin-2-yl)-N-methyl-3-(methylsulfonyl)-1H-indole-6-carboxamide], for which the inhibition at 10 µM is 89%.
On to `CCc1ccc(F)c(-c2cnc(-n3cc([S+](C)[O-])c4ccc(C(=O)N(C)C)cc43)nc2)c1` (stereo not shown) [Example 274, 1-(5-(5-Ethyl-2-fluorophenyl)pyrimidin-2-yl)-N,N-dimethyl-3-(methylsulfinyl)-1H-indole-6-carboxamide], for which the inhibition at 1 µM stood at 104%.
`Cc1ccnc(-c2cnc(-n3cc(S(C)(=O)=O)c4ccc(C(=O)N5CCOCC5)cc43)nc2)c1` [Example 353, (1-(5-(4-Methylpyridin-2-yl)pyrimidin-2-yl)-3-(methylsulfonyl)-1H-indol-6-yl)(morpholino)methanone]: the inhibition at 1 µM came to 54%.
For the molecule `CN(CC(N)=O)C(=O)c1ccc2c([S+](C)[O-])cn(-c3ncc(-c4cc(C5CC5)ccc4F)cn3)c2c1` (single isomer, unassigned) [Example 335, N-(2-Amino-2-oxoethyl)-1-(5-(5-cyclopropyl-2-fluorophenyl)pyrimidin-2-yl)-N-methyl-3-(methylsulfinyl)-1H-indole-6-carboxamide], the inhibition at 10 µM came out at 100%.
On the same count and under the same terms, as for `CS(=O)(=O)c1cn(-c2ncc(-c3ccccc3F)cn2)c2cc(C(=O)N3C[C@@H]4C[C@H]3CO4)ccc12` [Example 309, (1S,4S)-2-Oxa-5-azabicyclo[2.2.1]heptan-5-yl(1-(5-(2-fluorophenyl)pyrimidin-2-yl)-3-(methylsulfonyl)-1H-indol-6-yl)methanone], the figure is 97%; as for `CS(=O)(=O)c1cn(-c2ncc(-c3cc(Cl)ccn3)cn2)c2cc(C(=O)N3CCOCC3)ccc12` [Example 312, (1-(5-(4-Chloropyridin-2-yl)pyrimidin-2-yl)-3-(methylsulfonyl)-1H-indol-6-yl)(morpholino)methanone], 93%; as for `CCOc1ccnc(-c2cnc(-n3cc([S+](C)[O-])c4ccc(C(=O)N5CCCC5)cc43)nc2)c1` (stereo not shown) [Example 343, (1-(5-(4-Ethoxypyridin-2-yl)pyrimidin-2-yl)-3-(methylsulfinyl)-1H-indol-6-yl)(pyrrolidin-1-yl)methanone], 100%.
For the molecule `CC(=O)Oc1ccc(F)c(-c2cnc(-n3cc([S+](C)[O-])c4ccc(C(=O)N5CCOCC5)cc43)nc2)c1` (stereo not shown) [Example 264, 4-Fluoro-3-(2-(3-(methylsulfinyl)-6-(morpholine-4-carbonyl)-1H-indol-1-yl)pyrimidin-5-yl)phenyl acetate], the inhibition at 1 µM is 94%.
Turning to `CCc1ccc(F)c(-c2cnc(-n3cc(S(C)(=O)=O)c4ccc(C(=O)N(C)CC(N)=O)cc43)nc2)c1` [Example 311, N-(2-Amino-2-oxoethyl)-1-(5-(5-ethyl-2-fluorophenyl)pyrimidin-2-yl)-N-methyl-3-(methylsulfonyl)-1H-indole-6-carboxamide], the inhibition at 10 µM was 98%.
